The term pIC50 denotes −log10 of the IC50, conventionally taken in molar units. Higher therefore signals a small IC50.

pIC50: −log10 of the molar value. Counter-ions that a name gives are not always drawn.

In this experiment the target is T1, aldose-reductase (AR) (Rattus norvegicus, UniProt P07943).
T1 construct: The supernatant obtained was used as AR; from tissue; host or cells: lenses of male Wistar rats (10000 rpm supernatant of homogenate)
Put plainly: Aldose-reductase inhibitory activity (decrease in absorbance of NADPH at 340 nm, glyceraldehyde substrate). The format is biochemical, Wister male rats (lenses). The conditions noted are these: rat lens AR supernatant, 0.1M phosphate buffer pH 6.2, 30° C. The protocol: The aldose-reductase (AR) activity was evaluated by determining spectrophotometrically the decrease in absorbance of NADPH at 340 nm due to the reduction of the substrate, i.e., glyceraldehyde according to the method described in Biochemical Pharmacology 25, pp 2505-2513 (1976).
The lenses of Wister male rats was homogenized with 0.5 ml of 0.1M phosphate buffer (pH 6.2) per lens by a glass homogenizer and the homogenate was centrifuged at 10000 rpm for 10 minutes. The supernatant obtained was used as AR.
The determination of the AR activity was conducted as follows. A 700 μl quantity of 0.1M phosphate buffer (pH 6.2), 100 μl of 2.21 mM NADPH, 100 μl of AR and 5 μl of DMSO containing each of test compounds in varying concentrations were placed in a cell for test sample, and 800 μl of 0.1M phosphate buffer (pH 6.2), 100 μl of 2.21 mM NADPH, 100 μl of AR and 5 μl of DMSO were placed in a cell for control. Then the solutions in the cells were thoroughly mixed together and the mixtures were maintained at 30° C. Then 100 μl of 100 mM glyceraldehyde maintained at 30° C. was added to a cell for test sample and quickly blended to initiate the reaction. The AR activity was determined from the rate of change of absorbance per minute in the linear part of variations of absorbance during a period of from 1 minute to three minutes after the start of the reaction, and a dose-response curve was drawn.

Take `O=C(O)Cn1c(=O)n(Cc2ccc(Br)cc2F)c(=O)c2cc(C3CCCC3)sc21` [Compound I-16]: the pIC50 was 7.52. The result for `CC(C)c1cc2c(=O)n(Cc3ccc(Cl)cc3Cl)c(=O)n(CC(=O)O)c2s1` [Compound I-4] reads 7.77; that for `Cc1c(Cl)sc2c1c(=O)n(Cc1ccc(Cl)c(Cl)c1)c(=O)n2CC(=O)O` [Compound I-11], 7.60; that for `O=C(O)Cn1c(=O)n(Cc2ccc(Br)cc2F)c(=O)c2cc(-c3ccccc3)sc21` [Compound I-13], 7.47. In turn, `O=C(O)Cn1c(=O)n(Cc2ccc(Br)cc2F)c(=O)c2cc(Cl)sc21` [I-24 (Lysine salt)] gave a pIC50 of 7.60. The compound `Cc1csc2c1c(=O)n(Cc1ccc(Br)cc1F)c(=O)n2CC(=O)O` [Compound I-20, 1-carboxymethyl-3-(4-bromo-2-fluorobenzyl)-5-methylthieno[2,3-d]pyrimidin-2,4(1H, 3H)-dione] showed a pIC50 of 7.62. Compound `Cc1sc2c(c1C)c(=O)n(Cc1ccc(Br)cc1F)c(=O)n2CC(=O)O` [Compound I-14] showed a negative-log IC50 (pIC50) of 7.68. In the case of `Cc1sc2c(c1C)c(=O)n(Cc1ccc(Cl)cc1)c(=O)n2CC(=O)O` [Compound I-1, 1-carboxymethyl-3-(4-chlorobenzyl)-5,6-dimethylthieno[2,3-d]pyrimidin-2,4(1H, 3H)-dione], the negative-log IC50 (pIC50) was 7.12.

`CC(C)c1cc2c(=O)n(Cc3ccc(Cl)c(Cl)c3)c(=O)n(CC(=O)O)c2s1` [Compound I-3] showed a pIC50 of 7.59. Regarding `Cc1sc2c(c1C)c(=O)n(Cc1ccc(Cl)cc1Cl)c(=O)n2CC(=O)O` [Compound I-2], the pIC50 was 7.70. For the compound `O=C(O)Cn1c(=O)n(Cc2ccc(Cl)cc2Cl)c(=O)c2c3c(sc21)CCCC3` [Compound I-8], the pIC50 was 7.38. In turn, `Cc1c(Br)sc2c1c(=O)n(Cc1ccc(Cl)c(Cl)c1)c(=O)n2CC(=O)O` [Compound I-10] gave a pIC50 of 7.59. For the compound `CC(C)c1cc2c(=O)n(Cc3ccc(Br)cc3F)c(=O)n(CC(=O)O)c2s1` [Compound I-17], the pIC50 is 7.66. Take `O=C(O)Cn1c(=O)n(Cc2ccc(Br)cc2F)c(=O)c2c3c(sc21)CCCC3` [Compound I-15]: the pIC50 was 7.64. On to `O=C(O)Cn1c(=O)n(Cc2ccc(Br)cc2F)c(=O)c2ccsc21` [Compound I-19], for which the negative logarithm of the IC50 (pIC50) is 7.70. Compound `Cc1csc2c1c(=O)n(Cc1ccc(Cl)c(Cl)c1)c(=O)n2CC(=O)O` [Compound I-5] had a negative-log IC50 (pIC50) of 7.52.
